Source: US20230286973A1, “PROTEIN SECRETION INHIBITORS” (KEZAR LIFE SCIENCES, priority 2020, published 2023)
Read-outs that look alike come from different tables or passages of the source.

Legend:
[1] = system: multiple myeloma cell line NCI-H929; assay: H929 Cell Viability Assay; format: cell-based, human; settings: Homo sapiens, NCI-H929, 48 h, NCI-H929 cells, Celltiter-Glo
Outline: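 Plate the myeloma cells in RPMI 1640 with 10% FBS, add serially diluted compound, incubate for 48 hours at 37° C, then add CellTiter-Glo and read luciferase signal.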

[2] = system: IL-2-FL/Gaussia Luciferase; assay: Dox Induced IL2-FL-Gluc Assay; format: cell-based; settings: for IC50: 24 hr Dox induction, 293FRT/TO cells, read-out: 24 hr Dox Inducible IL2FLGluc 293FRT/TO: Mean IC50; for 24 hr Dox Inducible IL2FLGluc 293FRT/TO: IL2/PD1: ratio of IL2FLGluc IC50 to PD1ssGluc IC50
Outline: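 Reporter is Gaussia luciferase fused to the 3′ end of full-length IL-2 (aa 1-153), expressed from a doxycycline-inducible T-REx construct in stably selected Flp-In 293 cells. Compounds were co-added with doxycycline and incubated at 37° C, 5% CO2.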

[3] = Liver Microsome Stability Assay (mouse); settings: mouse liver microsomes, with NADPH, 1.0 uM compound
Method: (§1) Stability of a compound was assessed in the presence of liver microsomes from various sources—mouse, rat, monkey and human liver microsomes. 1.0 uM compound, 0.4% DMSO in 0.1 M Potassium Phosphate with 1.0 mg/mL liver microsomes, were incubated at 37° C. with or without 1 mM NADPH. The samples were quenched at 0, and 30 minutes.

[4] = Liver Microsome Stability Assay (human); settings: human liver microsomes, with NADPH, 1.0 uM compound
Method: as §1

[5] = system: TNFα-FL/Gaussia Luciferase; assay: Dox Induced TNFα-FL-Gluc Assay; format: cell-based; settings: for IC50: 24 hr Dox induction, 293FRT/TO cells, read-out: 24 hr Dox Inducible TNFaFLGluc 293FRT/TO: Mean IC50; for 24 hr Dox Inducible TNFaFLGluc 293FRT/TO: TNF/PD1: ratio of TNFaFLGluc IC50 to PD1ssGluc IC50
Outline: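 Cells are seeded one day ahead, then treated with compound plus doxycycline at 37 °C, 5% CO2. The stable Flp-In 293 T-REx line expresses full-length TNFα (amino acids 1-233) with Gaussia luciferase fused to its 3′ end, inducibly via T-REx.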

[6] = system: HER3-ss+4aa/Gaussia Luciferase; assay: Dox-Induced Her3-ss-Gluc Assay; format: cell-based; settings: 24 hr Dox induction, 293FRT/TO cells, read-out: 24 hr Dox Inducible Her3(ss + 4)Gluc 293FRT/TO: Mean IC50
Outline: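 Expression of a Gaussia luciferase reporter carrying the HER3 signal sequence plus 4 amino acids is induced by doxycycline in stably transfected Flp-In 293 T-REx cells. Compounds are added with doxycycline at 37° C., 5% CO2. Undefined stereocentres denote stereoisomer mixtures.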

[7] = Liver Microsome Stability Assay (monkey); settings: monkey liver microsomes, with NADPH, 1.0 uM compound
Method: as §1

[8] = system: PD1-ss+10aa/Gaussia Luciferase; assay: Dox-Induced PD1-ss-Gluc Assay; format: cell-based; settings: 24 hr Dox induction, 293FRT/TO cells, read-out: 24 hr Dox Inducible PD1ssGluc 293FRT/TO: Mean IC50
Outline: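 Flp-In 293 T-REx cells stably carrying a doxycycline-inducible Gaussia luciferase fused to the PD1 signal sequence plus 10 aa were plated the day before. Compound dilutions in DMSO/media containing doxycycline were then added and incubated at 37 °C, 5% CO2. Data for undefined stereochemistry refer to stereoisomer mixtures.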

[9] = Liver Microsome Stability Assay (rat); settings: rat liver microsomes, with NADPH, 1.0 uM compound
Method: as §1

[10] = system: multiple myeloma cell line U266B1; assay: U266 Cell Viability Assay; format: cell-based, human; settings: Homo sapiens, U-266, 48 h, U266B1 cells, Celltiter-Glo
Outline: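 48 h treatment, 37° C./5% CO2, RPMI 1640 + 10% FBS; viability by CellTiter-Glo luminescence.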

[11] = '<=>' given where both are I.A.

Row | Structure (SMILES) | EC50 [1] [nM] | IC50 [2] [nM] | 24 hr Dox Inducible IL2FLGluc 293FRT/TO: IL2/PD1 [2] | Liver Microsome Stability (Multiple Species): Mouse - % Remaining after 30 min w/NADPH [3] [%] | Liver Microsome Stability (Multiple Species): Human - % Remaining after 30 min w/NADPH [4] [%] | IC50 [5] [nM] | 24 hr Dox Inducible TNFaFLGluc 293FRT/TO: TNF/PD1 [5] | IC50 [6] [nM] | Liver Microsome Stability (Multiple Species): Monkey - % Remaining after 30 min w/NADPH [7] [%] | IC50 [8] [nM] | Liver Microsome Stability (Multiple Species): Rat - % Remaining after 30 min w/NADPH [9] [%] | EC50 [10] [nM] | IC50 ([2]; mean) [nM] | 24 hr Dox Inducible IL2FLGluc 293FRT/TO: IL2/PD1 [2, 11] | IC50 ([5]; mean) [nM] | 24 hr Dox Inducible TNFaFLGluc 293FRT/TO: TNF/PD1 [5, 11] | IC50 ([6]; mean) [nM] | IC50 ([8]; mean) [nM]
1 | CNCCOc1ccc(N2CCC[C@@H]2c2csc(NC(=O)c3cccn3Cc3ccnc(F)c3)n2)cc1 [Compound A103, (R)-1-((2-fluoropyridin-4-yl)methyl)-N-(4-(1-(4-(2-(methylamino)ethoxy)phenyl)pyrrolidin-2-yl)thiazol-2-yl)-1H-pyrrole-2-carboxamide] | 4040 | 843 | 2.9 | 55 | 67 | 8640 | 29.2 | 670 | 47.2 | 296 | 28.3 | 5660 | – | – | – | – | – | –
2 | O=C(Nc1nc([C@H]2CCCN2c2ccc(C3CCCCN3)cc2)cs1)c1cccn1Cc1ccncc1 (stereo partly drawn) [Compound A59, N-(4-((2R)-1-(4-(piperidin-2-yl)phenyl)pyrrolidin-2-yl)thiazol-2-yl)-1-(pyridin-4-ylmethyl)-1H-pyrrole-2-carboxamide] | 16000 | 6960 | 3.2 | 49.8 | 0.62 | 22500 | 10.3 | 5060 | 2.29 | 2180 | 21.3 | 6490 | – | – | – | – | – | –
3 | C[C@@H](O)c1ccc(N2CCC[C@@H]2c2csc(NC(=O)c3cccn3Cc3ccnc(F)c3)n2)cc1 [Compound A111, 1-((2-fluoropyridin-4-yl)methyl)-N-(4-((R)-1-(4-((R)-1-hydroxyethyl)phenyl)pyrrolidin-2-yl)thiazol-2-yl)-1H-pyrrole-2-carboxamide] | 422 | 16.3 | 2.1 | 12.7 | 2.78 | 94.5 | 11.9 | 13.6 | 3.48 | 7.92 | 7.97 | > 25000 | – | – | – | – | – | –
4 | O=C(Nc1ccc(N2CCC[C@@H]2c2csc(NC(=O)c3cccn3Cc3ccnc(F)c3)n2)cc1)OC1COC1 [Compound A177, oxetan-3-yl (R)-(4-(2-(2-(1-((2-fluoropyridin-4-yl)methyl)-1H-pyrrole-2-carboxamido)thiazol-4-yl)pyrrolidin-1-yl)phenyl)carbamate] | 16.2 | 2.79 | 3 | 29.1 | 39.3 | 25.8 | 27.6 | 2.39 | 9.52 | 0.93 | 57.1 | > 25000 | – | – | – | – | – | –
5 | [2H]c1cc([2H])cc(N2CCC[C@@H]2c2csc(NC(=O)c3cccn3Cc3ccnc(F)c3)n2)c1 [Compound A95, (R)-1-((2-fluoropyridin-4-yl)methyl)-N-(4-(1-(phenyl-3,5-d2)pyrrolidin-2-yl)thiazol-2-yl)-1H-pyrrole-2-carboxamide] | 590 | 18.6 | 2.2 | 10.2 | 8.25 | 133 | 15.9 | 14.8 | 0.88 | 8.34 | 13.9 | > 25000 | – | – | – | – | – | –
6 | CC(C)n1ccc(/C=C/c2csc(NC(=O)c3cccn3Cc3ccncc3)n2)n1 [Compound B75, (E)-N-(4-(2-(1-isopropyl-1H-pyrazol-3-yl)vinyl)thiazol-2-yl)-1-(pyridin-4-ylmethyl)-1H-pyrrole-2-carboxamide] | 7160 | 17100 | 38 | 0.94 | 2.26 | 10300 | 23 | 5670 | 0.23 | 446 | 0.27 | 6750 | – | – | – | – | – | –
7 | CNS(=O)(=O)N1CC(Oc2ccc(N3CCC[C@@H]3c3csc(NC(=O)c4cccn4Cc4ccnc(F)c4)n3)cc2)C1 [Compound A151, (R)-1-((2-fluoropyridin-4-yl)methyl)-N-(4-(1-(4-((1-(N-methylsulfamoyl)azetidin-3-yl)oxy)phenyl)pyrrolidin-2-yl)thiazol-2-yl)-1H-pyrrole-2-carboxamide] | 1390 | 59 | 2.7 | 15.3 | 7.69 | 386 | 17.9 | 43.1 | 0.95 | 21.5 | 38.3 | > 25000 | – | – | – | – | – | –
8 | N#CCC1(Cn2cccc2C(=O)Nc2nc([C@H]3CCCN3c3ccccc3)cs2)CC1 [Compound C8, (R)-1-((1-(cyanomethyl)cyclopropyl)methyl)-N-(4-(1-phenylpyrrolidin-2-yl)thiazol-2-yl)-1H-pyrrole-2-carboxamide] | > 25000 | – | – | 1.66 | 5.88 | – | – | – | 1.37 | – | 8.76 | > 25000 | 22400 | 5.9 | > 25000 | >6.61 | 9470 | 3780
9 | CCc1ccc(N2CCC[C@@H]2c2csc(NC(=O)c3cccn3CC3CCOCC3)n2)cn1 [Compound C96, (R)-N-(4-(1-(6-ethylpyridin-3-yl)pyrrolidin-2-yl)thiazol-2-yl)-1-((tetrahydro-2H-pyran-4-yl)methyl)-1H-pyrrole-2-carboxamide] | 2960 | – | – | 6.58 | 0.07 | – | – | – | 0.13 | – | 0.76 | > 25000 | 280 | 4.4 | 943 | 14.8 | 59.6 | 63.7
